Measurements from paper PMC5789975, “Computer-aided Discovery of Peptides that Specifically Attack Bacterial Biofilms” (Scientific Reports, 2018).
Values after ≈ are worked out from the molar mass of the structure shown. Read-outs that look alike come from different tables or passages of the source. Ends that are not written are not given here.

Experiments:
[1] = tested on: S. aureus (MRSA SAP0017) biofilms; assay: Static microtitre plate antibiofilm screen (crystal violet); assay type: cell-based, Staphylococcus aureus; details: SPOT-synthesized, highest peptide concentration evaluated, compared to untreated controls; listed from most to least active
Procedure: The SPOT-synthesized peptides were evaluated for their antibiofilm activity in vitro as described previously. Briefly, 5 μl of SPOT-peptide stock solution or a corresponding serial dilution was placed in a 96-well polypropylene round bottom plate (Corning Inc. Corning, NY) and 95 μl of a 1/100 dilution of an overnight culture of MRSA SAP0017 in TSB supplemented with 1% glucose was added to each well. The plates were incubated overnight at 37 °C to allow for bacterial growth and biofilm maturation. After 24 hours, the media containing planktonic bacteria was rinsed from each well with distilled water and the remaining biomass was stained with 0.1% crystal violet. The unbound dye was rinsed away and the biofilm bound dye was suspended in 70% ethanol and the absorbance at 595 nm was recorded on a plate reader. Percent biofilm inhibition was calculated by comparison to the amount of crystal violet stain in the untreated controls (defined as 100%) and the sterility control wells (defined as 0%). Results from three separate biological replicates were averaged and outliers were identified using the modified Thompson Tau test and removed from the analysis. The antibiofilm activity of all SPOT-derived peptides was assessed at multiple concentrations (up to five 2-fold dilutions from the stock solution) and the peptide concentration yielding the largest difference in percent inhibition of biofilm growth was used in subsequent analysis.

[2] = tested on: planktonic S. aureus MRSA (SAP0017); assay: MIC determination, broth microdilution; assay type: cell-based, Staphylococcus aureus; details: for MIC: Staphylococcus aureus, MRSA; for MIC, MHB: Mueller Hinton Broth; for MIC, MHB / MIC, TSB with 1% Glucose: broth microdilution, ~5 × 10^5 CFU/ml, 37 °C overnight, visual read, mean of three biological replicates; for MIC, TSB with 1% Glucose: Tryptic Soy Broth with 1% glucose
Procedure: The MIC of the synthesized peptides was determined in both Mueller Hinton Broth (MHB) and Tryptic Soy Broth (TSB) supplemented with 1% glucose, using the broth microdilution method[21] with slight modifications. Briefly, 10 μl of a 10× concentrated peptide stock solution, vancomycin antibiotic, or vehicle control (water) was placed in the bottom of a well in a 96-well polypropylene round bottom plate (Corning Inc. Corning, NY). A bacterial suspension of S. aureus MRSA (SAP0017, clinical isolate kindly provided by Dr. Tony Chow, Vancouver General Hospital) was prepared from an overnight culture to a final cell density of ~5 × 10^5 CFU/ml and 90 μl of this was added to each well.

[3] = tested on: MRSA USA300 LAC; assay: Murine cutaneous abscess model; assay type: in vivo, CD-1 mice; details: 14 mg/kg
Procedure: The in vivo activity of the identified antibiofilm peptide 3002 and the parental compound 1018 was evaluated using a recently described murine abscess model of chronic MRSA infections. All animal experiments were performed in accordance with The Canadian Council on Animal Care (CCAC) guidelines and were approved by the University of British Columbia Animal Care Committee. Briefly, the fur on the backs of 6-week old female CD-1 mice (Charles River Laboratories, Wilmington, MA) was removed by shaving and subsequent treatment with depilatory cream. MRSA USA300 LAC was grown to an optical density at 600 nm of 1 in tryptic soy broth (TSB) at which point cells were washed twice with sterile PBS and then suspended in PBS to a final cell density of 5 × 10^7 CFU/50 μL. Mice were infected with 50 μL of bacteria subcutaneously on the right flank of the back and 1 hour later, given saline (for controls) or treated with 14 mg/kg peptide (1018 or 3002) via intra-abscess injection. Mice were monitored daily and their weight as well as abscess lesion sizes (measured using a caliper) were recorded every 24 hrs. Visible dermonecrosis or white lesions (filled with pus) were considered as part of the abscess lesion while swelling/inflammation was disregarded in the abscess size measurements. Three days post-infection, abscesses were excised and homogenized using a Bead Ruptor 4 tissue homogenizer (OMNI International, Kennesaw GA) for 5 minutes and serially plated for viable CFU quantification.

[4] = tested on: IL-1β production from LPS-stimulated PBMCs; assay: Suppression of IL-1β from LPS-stimulated PBMCs (ELISA); assay type: cell-based, human; details: PBMCs stimulated with 10 ng/ml P. aeruginosa PAO1 LPS; 10, 20, 40 µM peptide; six donors
Procedure: (§1) The cytotoxicity and immunomodulatory activity of both 1018 and 3002 was assessed as described previously. Briefly, peripheral blood mononuclear cells (PBMCs) were collected from healthy volunteers in accordance with the University of British Columbia ethics guidelines. PBMCs were plated in Costar 96-well flat bottom tissue culture treated plates at a final density of 1 × 10^6 cells/ml in RPMI media supplemented with 10% fetal bovine serum. Both peptides were tested at final concentrations of 40, 20 and 10 µM. Cytotoxicity was assessed using the Cytotoxicity Detection Kit (Roche Diagnostics, Basel, Switzerland) which measures lactate dehydrogenase activity released from damaged cells. Immune modulation was characterized by measuring the production of MCP-1 chemokine by induced by peptide alone as well as the suppression of interleukin (IL)-1β from PBMCs stimulated with 10 ng/ml Pseudomonas aeruginosa PAO1 lipopolysaccharide. Levels of MCP-1 and IL-1β were quantified by enzyme linked immunosorbent assays (ELISAs) using kits from eBioscience Inc. (San Diego, CA).

[5] = tested on: S. aureus (MRSA SAP0017) biofilms; assay: Static microtitre plate antibiofilm screen (crystal violet); assay type: cell-based, Staphylococcus aureus
[6] = tested on: MCP-1 production from PBMCs; assay: MCP-1 chemokine induction by peptide alone (ELISA); assay type: cell-based, human; details: highest peptide concentration evaluated (40 µM), compared to 1018; six donors
Procedure: as §1

[7] = tested on: MRSA SAP0017 biofilms grown in flow cells; assay: Eradication of pre-formed biofilms in flow cells; assay type: cell-based, Staphylococcus aureus; details: BM2 media, SYTO-9/propidium iodide, confocal microscopy
Procedure: Bacterial biofilms were grown in BM2 media (62 mM potassium phosphate buffer, pH 7, 7 mM (NH4)2SO4, 2 mM MgSO4, 10 μM FeSO4 and 0.4% (wt/vol) glucose) for 48 hours followed by treatment with peptide (2 or 0.125 µM) for an additional 24 hours. The samples were stained with SYTO-9 and propidium iodide fluorescent dyes to image total and dead cells, respectively. Flow-cell images were acquired on an Olympus FluoView FV1000 confocal laser scanning microscope (Olympus Corp. Tokyo, Japan) and were analyzed with the Fiji software package.

## LIVIQLLKKWWK [compound 41, Experimental Validation Set peptide]
[1]
  antibiofilm activity of SPOT-synthesized Experimental Validation Set peptides: exhibited antibiofilm activity

## CN[C@H](CC(C)C)C(=O)N[C@H]1C(=O)N[C@@H](CC(N)=O)C(=O)N[C@H]2C(=O)N[C@H]3C(=O)N[C@H](C(=O)N[C@H](C(=O)O)c4cc(O)cc(O)c4-c4cc3ccc4O)[C@H](O)c3ccc(c(Cl)c3)Oc3cc2cc(c3O[C@@H]2O[C@H](CO)[C@@H](O)[C@H](O)[C@H]2O[C@H]2C[C@](C)(N)[C@H](O)[C@H](C)O2)Oc2ccc(cc2Cl)[C@H]1O [Vancomycin, reference compound]
[2]; read-out: MIC, MHB
  MIC: 0.34 µM (≈ 0.493 µg/mL)
[2]; read-out: MIC, TSB with 1% Glucose
  MIC: 0.68 µM (≈ 0.986 µg/mL)

## RRQWRGWVRIWL-NH2 [compound 3005, QSAR–predicted antibiofilm peptide, >95% purity, C-terminally amidated]
[2]
  MIC, MHB: 4 µM
  MIC, TSB with 1% Glucose: 64 µM
[1]
  antibiofilm activity of SPOT-synthesized Experimental Validation Set peptides: exhibited antibiofilm activity

## IWLRLKVVLKRK-NH2 [compound 3006, QSAR–predicted antibiofilm peptide, >95% purity, C-terminally amidated]
[2]
  MIC, MHB: 4 µM
  MIC, TSB with 1% Glucose: 32 µM
[1]
  antibiofilm activity of SPOT-synthesized Experimental Validation Set peptides: exhibited antibiofilm activity

## WIIRWIKIWLKI [compound 46, Experimental Validation Set peptide]
[1]
  antibiofilm activity of SPOT-synthesized Experimental Validation Set peptides: exhibited antibiofilm activity

## RRIIKILLWKLR [compound 10, Experimental Validation Set peptide]
[1]
  antibiofilm activity of SPOT-synthesized Experimental Validation Set peptides: exhibited antibiofilm activity

## VLQIKKVLRLLL [compound 17, Experimental Validation Set peptide]
[1]
  antibiofilm activity of SPOT-synthesized Experimental Validation Set peptides: exhibited antibiofilm activity

## GLIIKIIKKRLW [compound 26, Experimental Validation Set peptide]
[1]
  antibiofilm activity of SPOT-synthesized Experimental Validation Set peptides: exhibited antibiofilm activity

## KKWQLLIKWKLR [compound 11, Experimental Validation Set peptide]
[1]
  antibiofilm activity of SPOT-synthesized Experimental Validation Set peptides: exhibited antibiofilm activity

## IQRWWKVWLKVI-NH2 [compound 3004, QSAR–predicted antibiofilm peptide, >95% purity, C-terminally amidated]
[2]
  MIC, MHB: 4 µM
  MIC, TSB with 1% Glucose: 16 µM
[1]
  antibiofilm activity of SPOT-synthesized Experimental Validation Set peptides: exhibited antibiofilm activity

## VLKIKVKIWVVK-NH2 [compound 3007, QSAR–predicted antibiofilm peptide, >95% purity, C-terminally amidated]
[2]
  MIC, MHB: 16 µM
  MIC, TSB with 1% Glucose: >64 µM
[1]
  antibiofilm activity of SPOT-synthesized Experimental Validation Set peptides: exhibited antibiofilm activity

## VIKWLLKILRAI-NH2 [compound 3001, QSAR–predicted antibiofilm peptide, >95% purity, C-terminally amidated]
[2]
  MIC, MHB: 1 µM
  MIC, TSB with 1% Glucose: 2 µM
[1]
  antibiofilm activity of SPOT-synthesized Experimental Validation Set peptides: exhibited antibiofilm activity

## LWQLWLKLKLKG [compound 56, Experimental Validation Set peptide]
[1]
  antibiofilm activity of SPOT-synthesized Experimental Validation Set peptides: exhibited antibiofilm activity

## ILVRWIRWRIQW-NH2 [compound 3002, QSAR–predicted antibiofilm peptide, >95% purity, C-terminally amidated]
[3]; single intra-abscess injection 1 h after infection, 3 days
  reduction of abscess lesion size compared to untreated controls: 2.8 fold
[3]; single intra-abscess injection, CFU three days post-infection
  effect on bacterial load recovered from the abscesses: neither peptide had any effect
[4]
  suppression of IL-1β production: in a concentration dependent manner to similar levels as seen for peptide 1018
[2]
  MIC, MHB: 2 µM
  MIC, TSB with 1% Glucose: 4 µM
[5]; >95% pure peptide, static microtitre plate assay
  concentration effectively inhibiting MRSA biofilm growth (as low as): 1 µM
[5]; >95% pure peptides, static microtitre plate assay
  enhancement in antibiofilm potency compared to 1018: 8 fold
[6]
  MCP-1 production induced by peptide alone: induced significantly more MCP-1 production
[1]
  antibiofilm activity of SPOT-synthesized Experimental Validation Set peptides: exhibited antibiofilm activity
[7]; 0.125 μM peptide for 24 h
  eradication of 2-day old pre-formed MRSA biofilms: effectively eradicated
[7]; 2 µM peptide for 24 h
  eradication of 2-day old pre-formed MRSA biofilms: effectively eradicated

## IKWVLRKIVQII [compound 37, Experimental Validation Set peptide]
[1]
  antibiofilm activity of SPOT-synthesized Experimental Validation Set peptides: exhibited antibiofilm activity

## IQLKLIWVKRKW [compound 48, Experimental Validation Set peptide]
[1]
  antibiofilm activity of SPOT-synthesized Experimental Validation Set peptides: exhibited antibiofilm activity

## VIKVLIKRWLKL [compound 9, Experimental Validation Set peptide]
[1]
  antibiofilm activity of SPOT-synthesized Experimental Validation Set peptides: exhibited antibiofilm activity

## VQWIQIVVWRKR [compound 6, Experimental Validation Set peptide]
[1]
  antibiofilm activity of SPOT-synthesized Experimental Validation Set peptides: exhibited antibiofilm activity

## WKKVQWLKRLLL-NH2 [compound 3003, QSAR–predicted antibiofilm peptide, >95% purity, C-terminally amidated]
[2]
  MIC, MHB: 4 µM
  MIC, TSB with 1% Glucose: 16 µM
[5]; >95% pure peptide, 32 μM
  residual biofilm growth: ~ 40%
[1]
  antibiofilm activity of SPOT-synthesized Experimental Validation Set peptides: exhibited antibiofilm activity
